This is an account of results in patent US20210046139A1, “VEGETATION WATERS AND USES THEREOF” (FATTORIA LA VIALLA DI GIANNI, ANTONIO E BANDINO LO FRANCO - …, priority 2018, published 2021).

In experiment [1] the test system is STZ diabetic rats. Nature of the experiment: Thiobarbituric acid reactive substances (TBARS) in plasma and kidney. It is filed as in vivo, Sprague-Dawley rats. Conditions: 50 mg/kg/day, 5 weeks, mean ± S.E. An excerpt:
A well-established model of streptozotocin (STZ)-induced diabetes in rats was used. Streptozotocin is a glucosamine derivative of nitrosurea which selectively destroys the β cells of the pancreatic islets and causes the development of diabetes with hyperglycemia and glycosuria. The model shares a series of characteristics with human diabetic complications at both a functional level and a biochemical level, such as, for example, a reduced nervous conduction, loss of small-diameter sensory nerve fibers in the skin, reduction in Na+ and K+-ATPase activity and early alterations of the thermal and mechanical nociceptive thresholds. In this study, diabetes was induced in 24 rats with a single intraperitoneal injection of 60 mg/kg of STZ dissolved in a sodium citrate buffer (pH 4.5). 24 rats injected only with the vehicle were used as non-diabetic controls. Hyperglycemia was confirmed by measuring glycosuria 72 hours after the injection of STZ using Keto-Diabur strips (KD-5000; Roche Diagnostics Spa, Italy). Only the animals with glycosuria >5% were classified as diabetic and included in the study. […] The levels of TBARS were determined as an indicator of the production of reactive oxygen species. […] The upper phase was measured using fluorimetry, (Infinite M200; Tecan, Milan, Italy) at an excitation wavelength of 532 nm and emission wavelength of 553 nm. […]

The test system of experiment [2] is STZ diabetic rats. Nature of the experiment: Motor and sensory nerve conduction velocity (tail, sciatic nerve). It is filed as in vivo, Sprague-Dawley rats. Conditions: end of administration (week 12), mean ± S.E.; for Conduction of sciatic nerve: sciatic motor NCV; for Sensitivity of sciatic nerve: sciatic sensory NCV; for Conduction of tail: tail motor NCV; for Sensitivity of tail: tail sensory NCV. The source says:
A well-established model of streptozotocin (STZ)-induced diabetes in rats was used. Streptozotocin is a glucosamine derivative of nitrosurea which selectively destroys the β cells of the pancreatic islets and causes the development of diabetes with hyperglycemia and glycosuria. The model shares a series of characteristics with human diabetic complications at both a functional level and a biochemical level, such as, for example, a reduced nervous conduction, loss of small-diameter sensory nerve fibers in the skin, reduction in Na+ and K+-ATPase activity and early alterations of the thermal and mechanical nociceptive thresholds. In this study, diabetes was induced in 24 rats with a single intraperitoneal injection of 60 mg/kg of STZ dissolved in a sodium citrate buffer (pH 4.5). 24 rats injected only with the vehicle were used as non-diabetic controls. Hyperglycemia was confirmed by measuring glycosuria 72 hours after the injection of STZ using Keto-Diabur strips (KD-5000; Roche Diagnostics Spa, Italy). Only the animals with glycosuria >5% were classified as diabetic and included in the study. […] The animals were then randomized to receive the concentrate of the invention at an HT equivalent dose of 50 mg/kg/day or 50 mg/kg/day of pure HT in drinking water, according to the following treatment groups: The electrophysiological studies were performed using a portable electromyograph (Alpine Biomed ApS DK-2740, Denmark). The test on sciatic nerve conduction was performed by stimulating the sciatic nerve in the Achilles tendons and in the hollow above the sciatic nerve at the point of attachment of the tail with a single 2.2 ms supramaximal pulse using a bipolar electrode. A measurement of the motor action potential (CMAP) was obtained by placing the active electrode in subcutaneous tissue, in the first interosseous muscle of a toe of the hind paw, and the reference electrode in the fourth interosseous muscle of the same paw. The motor conduction velocity was calculated by subtracting the distal value from the proximal value taking the latency of the first negative peak of the proximal CMAP, measured in milliseconds, and the difference was […] the distance between the two stimulating electrodes, measured in millimeters. The sensory conduction velocity was determined using the plantar nerve. The sensory nerve action potential (SNAP) of the plantar nerve was measured by placing the recording electrode (needle) in subcutaneous tissue at the level of the […] next to the medial malleolus and the reference electrode proximally at about 1 cm. Circular stimulation electrodes were placed in the middle of the three middle toes of the hind paw, and stimulation was performed with a square pulse wave lasting 0.05 ms, with a barely supramaximal current intensity stimulus. The sensory conduction velocity was calculated by measuring the latency at the negative deviation of the peak potential and the distance between the stimulation electrode and the recording electrode. The motor and sensory conduction velocities are expressed as meters per second. The tail motor and sensory conduction test requires that the sensory nerve of the tail be stimulated by inserting the cathode 2 cm from the tip of the tail and the anode at 1 cm distally, using a square wave pulse lasting 0.05-ms at a supramaximal intensity. The SNAPs were recorded by inserting the active electrode 5 cm from the cathode and the reference electrode at 1 cm more proximally. The sensory nerve conduction velocity was calculated by measuring the latency at the peak of the first negative deflection and the distance between the stimulating and recording electrodes. The tail motor nerve conduction was obtained using a bipolar recording configuration. The active electrode was positioned 2 cm from the tip of the tail and the reference electrode at 1 cm distally. The motor nerve of the tail was initially stimulated at 5 cm proximally from the active recording electrode and, subsequently, proximally at 10 cm. […]

[3] abbreviates: non-diabetic control rats (CTRL).

For `OCCc1ccc(O)c(O)c1` [HT, hydroxytyrosol], the PLASMA TBARS in experiment [1] (STZ diabetic rats) turned out to be 12.1 ± 1.2 nmol/mL. Besides, in experiment [1] (setting [3]), the PLASMA TBARS came to 4.3 ± 0.5 nmol/mL. For the same compound, in experiment [2] (STZ diabetic rats), the “Conduction of sciatic nerve” value is on record as 40.3 ± 0.7 m/sec, the “Sensitivity of sciatic nerve” value is 33.7 ± 0.9 m/sec, the Conduction of tail is recorded as 37.4 ± 0.9 m/sec and the Sensitivity of tail came out at 30.8 ± 0.8 m/sec. Besides, in experiment [2] (setting [3]), the “Conduction of sciatic nerve” value is 46.5 ± 1.5 m/sec, the “Sensitivity of sciatic nerve” value is 39.0 ± 0.9 m/sec, the Conduction of tail is given as 36.1 ± 1.7 m/sec and the Sensitivity of tail worked out at 34.7 ± 1.3 m/sec.
